From patent US20240327372A1, “PREPARATION OF PHENE[…] […] STEREOISOMERS THEREOF AND PRECURSORS THEREOF” (priority 2022, published 2024)

Key:
[1] = target: serotonin transporter (SERT) (Rattus norvegicus (Rat), UniProt P31652); test: Competition radioligand binding, [3H]Citalopram, rat brain membranes; settings: for IC50 / Ki: 5-HT transporter; for Ki: Cheng-Prusoff
Description: Rat brain (Sprague Dawley, 200-250 g) synaptosomes were isolated from midbrain and hindbrain for serotonin transporter assays, striatum for dopamine transporter assays, and hippocampus plus overlying occipital cortex for norepinephrine transporter assays. Radioligands used were: [^3H]Citalopram 81.4 Ci/mmol (PerkinElmer NET1039250UC; Lot No. 2960876). [^3H]WIN35428 82.8 Ci/mmol (PerkinElmer NET1033250UC; Lot No. 2891473). [^3H]Nisoxetine 79.2 Ci/mmol (PerkinElmer NET1084250UC; Lot No. 2970324). Non-specific compounds used were: Citalopram (Tocris Bioscience 1427). JHW007 (Tocris Bioscience 4351). Nomifensine (Abcam ab146004). Test Compounds for the study were: racemic methylone HCl; (R)-methylone HCl; (S)-methylone HCl.
For membrane preparations, rat brains were dissected, tissue was added to ice-cold lysis buffer (50 mM Tris HCl; 5 mM MgCl2; 5 mM EDTA; protease inhibitor cocktail) and homogenized. The homogenate was centrifuged at 100×g for 2 minutes and the supernatant divided into polypropylene Eppendorf tubes. The supernatants were centrifuged at 17,000×g for 10 minutes at 4° C. to re-pellet the cell lysate. The pellet was resuspended in fresh wash buffer (50 mM Tris-HCl; 5 mM MgCl2; 5 mM EDTA) and centrifuged a third time at 17,000×g for 10 minutes at 4° C. The pellet was resuspended in wash buffer containing 10% sucrose as a cryoprotectant, divided into aliquots (0.3 mL) and stored at −80° C. A sample of the homogenate was analyzed for protein content using the MERCK® BCA assay. On the day of the assay, the membrane preparation was thawed and the pellet resuspended in final assay buffer.
Competition binding assays were carried out in 96-well polypropylene plates in a final volume of 250 μL per well. To each well was added 150 μL membranes, 50 μL of test compound, non-specific compound or buffer, and 50 μL radioligand solution in buffer. The plate was incubated at 30° C. for 90 minutes with gentle agitation. The incubation was stopped by vacuum filtration onto presoaked (wash buffer with PEI) GF/C filters using a 96-well FILTERMATE™ harvester, followed by 5 washes with ice-cold wash buffer. Filters were then dried under a warm air stream, sealed in polyethylene, scintillation cocktail added, and the radioactivity counted in a WALLAC® TriLux 1450 MicroBeta counter. For each concentration of drug, non-specific binding was subtracted from total binding to give specific binding. Data was fitted using the non-linear curve fitting routines in PRISM® (Graphpad Software Inc) to determine IC50. Ki was subsequently calculated using the ChengPrusoff equation.

[2] = tested on: NET; test: NE release study; assay type: biochemical
[3] = tested on: rat forced swim test (FST); test: Rat forced swim test (FST); assay type: in vivo; settings: single dose 10 mg/kg IP, 30 min before testing
Experimental: All FST studies are performed and scored by an experimenter blind to treatment group and according to standard protocols. Briefly, rats are placed in a circular plexiglass container filled with water. Water temperature is maintained at 22-25° C. and changed for every animal. Day 1 (Training) consists of a 15 min acclimation trial, and Day 2 (Testing, 24 h later) consists of the 5 min test. A time sampling procedure is employed where animals are observed every 5 seconds for the duration of the test session (60 counts or 5 minutes) and scored for immobility (defined as the failure to struggle), swimming (defined as a circular movement around the tank), or climbing (defined as an upwards escape behavior). Data are expressed as the percent of the testing session (e.g., the number of immobility counts divided by 60). A p-value less than 0.05 indicates statistical significance after typical statistical analyses (e.g., unpaired t-test or ANOVA).
To determine that the prodrug and/or enantiomer has an antidepressant-like effect and to compare it to methylone, rats are treated with each compound 30 min prior to testing. Additional tests are run 24, 72, 168 hours post-dose or longer.
Racemic methylone (10 mg/kg, IP) has a maximal antidepressant-like effect in the rat forced swim test (FST), reducing immobility by nearly 100% compared to vehicle treated controls. To determine whether one enantiomer of methylone could mimic the robust antidepressant-like effect of racemic methylone, rats were treated with a single dose of racemic methylone, (R)-methylone, (S)-methylone (all 10 mg/kg, IP) or vehicle 30 min before testing in the FST. […] Therefore, all of the activity of methylone appears to be driven by the activity of one enantiomer ((S)-methylone).

[4] = target: DAT (Rattus norvegicus (Rat), UniProt P23977); test: DA release study; assay type: biochemical
[5] = target: hERG (Homo sapiens (Human), UniProt Q12809); test: hERG Potassium Channel Assay, Qube APC; assay type: cell-based; settings: Antagonist mode, test compound
Experimental: Where presented, IC50 values were determined by a non-linear, least squares regression analysis.
Recombinant HEK-293 cells stably transfected with human Nav1.5 cDNA, recombinant HEK293 cell line expressing the human Cav1.2 (L-type voltage gated calcium channel, hCav1.2 α1C/β2a/α2δ1, and recombinant CHO-K1 cells stably transfected with human hERG cDNA were used separately in each of these assays.
hERG Potassium Channel Assay—Qube APC After whole cell configuration is achieved, the cells are held at −80 mV. Cells are held at this voltage for 50 ms to measure the leak current, which is subtracted from the tail current on-line. The cells are depolarized to +40 mV for 500 ms and then to −80 mV over a 100 ms ramp to elicit the hERG tail current. This paradigm is delivered once every 8 s to monitor the current amplitude.

[6] = target: hKCNQ1/hminK (Homo sapiens (Human), UniProt P51787); test: hKCNQ1/hminK Potassium Channel Assay, Qube APC; assay type: cell-based; settings: KCNQ1/mink, Antagonist mode, test compound
Experimental: Electrophysiological assays were conducted to profile three compounds ((R)-methylone, (S)-methylone, or racemic methylone) for activities on the ion channel targets specified below using the Qube electrophysiological platform. Where presented, IC50 values were determined by a non-linear, least squares regression analysis. Reference standards were run as an integral part of each assay to ensure the validity of the results obtained.
Ion Channels tested were Eurofins Panel Part Number: CPROFullQB2DR Voltage-Gated Sodium: HEK-Nav1.5 (Peak), HEK-Nav1.5 (Late, Antagonist) Voltage-Gated Potassium: HEK-Kv4.3/KChIP2, CHO-hERG, CHO-KCNQ1/minK Voltage-Gated Calcium: HEK-Cav1.2 Inward-Rectifying Voltage-Gated Potassium: HEK-Kir2.1.
hKCNQ1/hminK Potassium Channel Assay—Qube APC After whole cell configuration is achieved, the cells are held at −80 mV. KCNQ1/minK currents are evoked by a 1000 ms pulse from −80 mV to 60 mV followed by a ramp from 60 mV to −80 mV over 115 ms with the outward peak currents measured upon depolarization of the cell membrane. This paradigm is delivered once every 15 s to monitor the current amplitude.

hERG, sequence (Q12809 whole entry): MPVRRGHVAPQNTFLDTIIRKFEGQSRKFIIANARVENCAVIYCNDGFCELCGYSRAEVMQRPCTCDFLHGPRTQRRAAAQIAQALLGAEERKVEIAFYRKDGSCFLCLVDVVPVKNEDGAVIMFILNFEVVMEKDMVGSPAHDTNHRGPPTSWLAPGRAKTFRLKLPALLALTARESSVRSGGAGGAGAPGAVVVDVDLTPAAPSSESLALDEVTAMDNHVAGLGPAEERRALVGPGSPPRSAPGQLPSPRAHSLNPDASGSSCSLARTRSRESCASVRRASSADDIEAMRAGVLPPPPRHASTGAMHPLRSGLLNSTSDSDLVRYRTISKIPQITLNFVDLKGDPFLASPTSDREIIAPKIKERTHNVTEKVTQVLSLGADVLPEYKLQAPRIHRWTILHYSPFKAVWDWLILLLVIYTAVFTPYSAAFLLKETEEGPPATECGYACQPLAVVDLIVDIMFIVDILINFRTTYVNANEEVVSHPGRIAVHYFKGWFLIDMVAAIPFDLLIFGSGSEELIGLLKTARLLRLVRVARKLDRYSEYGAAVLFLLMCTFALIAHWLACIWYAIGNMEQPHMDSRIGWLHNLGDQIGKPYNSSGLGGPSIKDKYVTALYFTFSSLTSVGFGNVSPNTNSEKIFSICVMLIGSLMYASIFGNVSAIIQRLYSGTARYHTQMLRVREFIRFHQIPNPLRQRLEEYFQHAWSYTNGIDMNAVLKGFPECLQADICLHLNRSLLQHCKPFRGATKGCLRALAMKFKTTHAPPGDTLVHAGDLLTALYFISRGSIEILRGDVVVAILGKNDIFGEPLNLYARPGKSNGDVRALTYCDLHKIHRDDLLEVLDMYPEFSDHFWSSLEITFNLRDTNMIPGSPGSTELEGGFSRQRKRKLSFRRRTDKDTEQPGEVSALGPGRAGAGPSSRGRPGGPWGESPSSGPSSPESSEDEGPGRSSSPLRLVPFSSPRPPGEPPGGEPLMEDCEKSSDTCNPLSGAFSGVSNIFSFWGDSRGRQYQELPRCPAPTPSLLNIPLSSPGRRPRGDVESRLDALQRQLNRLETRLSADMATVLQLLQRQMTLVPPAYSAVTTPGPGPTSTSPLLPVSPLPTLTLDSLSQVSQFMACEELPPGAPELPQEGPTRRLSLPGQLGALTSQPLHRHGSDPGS

Compound | IC50 [1] [µM] | Ki [1] [µM] | EC50 [2] [µM] | Antidepressant-like effect in the FST [3] | EC50 [4] [µM] | Estimated IC50 [5] | Estimated IC50 [6] | Potency relative to racemic methylone ([1]; SERT binding)
CN[C@@H](C)C(=O)c1ccc2c(c1)OCO2 [(S)-methylone] | 6.52 | 3.95 | 0.76 | mimicked the rapid and robust antidepressant-like effect of racemic methylone | 3.28 | N/C (N/C indicates observed mean inhibition was <25%) | N/C (N/C indicates observed mean inhibition was <25%) | –
CN[C@H](C)C(=O)c1ccc2c(c1)OCO2 [(R)-methylone] | 34.7 | 21.1 | 0.191 | no effect | 4.77 | N/C (N/C indicates observed mean inhibition was <25%) | N/C (N/C indicates observed mean inhibition was <25%) | approximately three-fold less potent
